Test results reported in publication PMC7281349, “Anti-Inflammatory and Protein Tyrosine Phosphatase 1B Inhibitory Metabolites from the Antarctic Marine-Derived Fungal Strain Penicillium glabrum SF-7123” (Marine Drugs, 2020).

Assays:
[1] = test system: LPS-stimulated BV2 microglial cells; assay: NO production (nitrite, Griess reaction) in LPS-stimulated BV2 microglial cells; assay type: cell-based, murine; settings: for Effect on alteration of NO production: 80.0 μM; for IC50: Mus musculus, BV-2, mean ± SD of triplicate experiments, read-out: NO Inhibitory Effects, BV2 Cells (IC50)
From the text: (§1) LPS is a major cell wall component of Gram-negative bacteria. LPS is an intensive stimulator of macrophages and microglia, and thus treatment of these cells with LPS is frequently employed in research related to the inflammatory phenomenon. In the current study, all the isolated compounds (1–5) were investigated for their anti-neuroinflammatory and anti-inflammatory effects by examining their effects on the overproduction of NO and PGE2 in LPS-stimulated BV2 microglia and RAW264.7 macrophage cells. LPS stimulation increased the production of NO and PGE2 in both cell lines. […] Thus, this compound was selected to further examine the anti-inflammatory effect and to reveal its underlying mechanisms. […] Moreover, compound 2 attenuated the protein expression of iNOS and COX-2 in a dose-dependent manner in LPS-stimulated BV2 cells (Figure 3A).
(§2) RAW264.7 and BV2 cells were maintained at 5 × 10^5 cells/mL in Dulbecco’s modified Eagle’s medium (DMEM) containing 10% fetal bovine serum (FBS), penicillin G (100 U/mL), streptomycin (100 mg/L), and L-glutamine (2 mM) and incubated at 37 °C in a humidified atmosphere containing 5% CO2. DMEM, FBS, and other tissue culture reagents were purchased from Gibco BRL Co. Cell viability was evaluated by the MTT assay as described in our previous report.
To determine the nitrite concentration in the medium as an indicator of NO production, the Griess reaction was carried out as described in our previous report.

[2] = test system: LPS-stimulated BV2 microglial cells; assay: PGE2 production in LPS-stimulated BV2 cells; assay type: cell-based, murine; settings: Mus musculus, BV-2, mean ± SD of triplicate experiments, read-out: PGE2 Inhibitory Effects, BV2 Cells (IC50)
From the text: as §1, §2
The level of PGE2 present in each sample was determined using a commercially available kit from R&D Systems (Minneapolis, MN, USA); the details of this assay were described previously. Three independent assays were performed according to the manufacturer’s instructions.

[3] = target: T1, PTP1B (human, recombinant) (Homo sapiens, UniProt P18031); assay: PTP1B enzyme assay with pNPP substrate; assay type: biochemical; settings: for inhibition at 50 µM: 50 μM compound, read-out: Inhibitory Effects on PTP1B, inhibition percentage at 50 μM; for inhibition at 50 µM / IC50: pNPP substrate; for Mode of PTP1B inhibition (Lineweaver–Burk plot): pNPP 0.25-2.0 mM, Km and Vmax analysis; for IC50: mean ± SD of triplicate experiments, read-out: Inhibitory Effects on PTP1B (IC50)
T1 construct: purchased BIOMOL Research Laboratories, Inc
T1 sequence (P18031 1-435): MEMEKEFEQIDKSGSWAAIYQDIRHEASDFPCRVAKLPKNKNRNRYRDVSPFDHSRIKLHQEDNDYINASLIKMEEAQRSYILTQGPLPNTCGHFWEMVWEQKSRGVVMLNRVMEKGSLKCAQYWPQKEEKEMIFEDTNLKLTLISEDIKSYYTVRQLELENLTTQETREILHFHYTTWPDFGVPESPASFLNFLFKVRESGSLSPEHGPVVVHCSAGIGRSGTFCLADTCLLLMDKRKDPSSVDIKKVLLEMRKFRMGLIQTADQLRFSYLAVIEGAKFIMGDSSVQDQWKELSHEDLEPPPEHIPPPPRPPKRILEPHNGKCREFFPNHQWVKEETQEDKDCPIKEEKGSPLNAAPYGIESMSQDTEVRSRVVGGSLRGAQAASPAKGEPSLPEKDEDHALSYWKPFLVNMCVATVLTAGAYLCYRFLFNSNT
Procedure: In addition to the investigation of the anti-inflammatory and anti-neuroinflammatory effects of the isolated metabolites in cellular models, this study attempted to assess the inhibitory effect of the isolated compounds against PTP1B activity.
PTP1B (human, recombinant) used in the current study was purchased from BIOMOL Research Laboratories, Inc. PTP1B enzyme activity was determined using 2 mM of pNPP as a substrate in 50 mM citrate buffer solution (pH 6.0, 0.1 M NaCl, 1 mM EDTA, and 1 mM dithiothreitol). The reaction mixture was incubated at 30 °C for 30 min, and the reaction was terminated by the addition of 1 N NaOH. The amount of p-nitrophenol produced by the enzyme was estimated by measuring the increase in absorbance at 405 nm. The nonenzymatic hydrolysis of 2 mM pNPP was corrected by measuring the increase in absorbance at 405 nm in the absence of PTP1B [31]. The kinetic analysis involved the following: the assays were performed using a reaction mixture that contained different concentrations of pNPP (0.25 mM, 0.5 mM, 1.0 mM, and 2.0 mM) as a PTP1B substrate in the absence or presence of compounds 4 and 5. The Michaelis–Menten constant (Km) and maximum velocity (Vmax) of PTP1B were determined by the Lineweaver–Burk plot using the GraphPad Prism® 4 program (GraphPad Software Inc., San Diego, CA, USA).

[4] = test system: IL-1β, TNF-α, IL-6, IL-12 mRNA in LPS-stimulated BV2 cells; assay: qRT-PCR of pro-inflammatory cytokine mRNA in LPS-stimulated BV2 cells; assay type: cell-based, murine; settings: 3 h pre-treatment, LPS 1 µg/mL for 12 h
[5] = test system: iNOS and COX-2 protein expression in LPS-stimulated BV2 cells; assay: Western blot of iNOS and COX-2 in LPS-stimulated BV2 cells; assay type: cell-based, murine; settings: 1.0, 2.0, 4.0 μM, dose-dependent, LPS 1 μg/mL 24 h
Procedure: Cells were pre-treated with compound 2 (1.0, 2.0, and 4.0 μM) for 3 h and stimulated with LPS (1 μg/mL) for 24 h. The representative blots of three independent analyses for iNOS and COX-2 expression are shown.
(§3) Western blot analysis was carried out according to our previous report. Briefly, cells were harvested by centrifugation at 200 g for 3 min, followed by a washing step with RIPA lysis buffer (25 mM Tris-HCl buffer (pH 7.6), 150 mM NaCl, 1% NP-40, 1% sodium deoxycholate, and 0.1% SDS). Primary antibodies (COX-2: sc-1745; iNOS: sc-650; IкB-α: sc-371; p-IкB-α: sc-8404; p50: sc-7178; and p65: sc-8008) were purchased from Santa Cruz Biotechnology, and secondary antibodies (mouse: ap124p; goat: ap106p; and rabbit: ap132p) were purchased from Millipore.

[6] = test system: NF-κB pathway in LPS-stimulated BV2 cells; assay: NF-κB pathway activation (western blot, DNA-binding ELISA) in LPS-stimulated BV2 cells; assay type: cell-based, murine
Procedure: After pre-treatment with compound 2 (1.0, 2.0, and 4.0 μM) for 3 h, the cells were stimulated with LPS for 1 h. (A–F) Proteins were obtained, and specific anti-IκB-α, anti-p- IκB-α, anti-p65, and anti-p50 antibodies were employed for western blot analysis. Representative blots of three independent experiments are shown. Band intensity was quantified by densitometry and normalized to β-actin for the cytoplasmic fraction and to proliferating cell nuclear antigen (PCNA) for the nuclear fraction. (G, H) NF-κB binding activity in the nuclear fraction was determined using an NF-κB ELISA kit by Active Motif (* p < 0.05; ** p < 0.01; *** p < 0.001) and then compared to that of the LPS-treated group.
Western blot analysis was carried out according to our previous report. Briefly, cells were harvested by centrifugation at 200 g for 3 min, followed by a washing step with RIPA lysis buffer (25 mM Tris-HCl buffer (pH 7.6), 150 mM NaCl, 1% NP-40, 1% sodium deoxycholate, and 0.1% SDS). […]
The DNA-binding activity of NF-κB in the nuclear extracts was measured using the TransAM® kit (Active Motif, Carlsbad, CA, USA); three independent assays for each sample were conducted according to the manufacturer’s instructions.

[7] = test system: MAPK pathways (ERK, JNK, p38 MAPK) in LPS-stimulated BV2 cells; assay: MAPK phosphorylation (western blot) in LPS-stimulated BV2 cells; assay type: cell-based, murine; settings: 1.0, 2.0, 4.0 μM pre-treatment 3 h, LPS 1 h
Procedure: After pre-treatment with compound 2 (1.0, 2.0, and 4.0 μM) for 3 h, the cells were stimulated with LPS for 1 h. Western blot analysis was performed to determine the phosphorylated levels of extracellular signal-regulated kinases (ERK) (p-ERK), c-Jun N-terminal kinases (JNK) (p-JNK), and p38 MAPK (p-p38 MAPK). Representative blots of three independent experiments are shown. Band intensity was quantified by densitometry and normalized to β-actin. * p < 0.05; *** p < 0.001 as compared to the LPS-treated group.
as §3

[8] = test system: PC12 pheochromocytoma cells; design: method as in doi:10.1002/1099-0690(200105)2001:10<1963::AID-EJOC1963>3.0.CO; settings: cited from earlier work
endothelin binding = settings: cited from earlier work
HIV-1-integrase = settings: cited from earlier work

| Compound | IC50 [1] | IC50 [2] | inhibition at 50 µM [3] | Effect on alteration of NO production [1] | mRNA over-expression of IL-1β, TNF-α, IL-6 and IL-12 [4] | Protein expression of iNOS and COX-2 [5] | Activation of the NF-κB pathway (IκB-α phosphorylation/degradation, p50/p65 nuclear translocation) ([6]; 1.0, 2.0, 4.0 μM pre-treatment 3 h, LPS 1 h) | DNA binding activity of the p65 subunit ([6]; nuclear fraction, NF-κB ELISA kit) | Increased phosphorylation levels of ERK and JNK MAPKs [7] | LPS-induced p38 MAPK phosphorylation [7] | Neurite outgrowth in PC12 pheochromocytoma cells [8] | Endothelin binding inhibition (endothelin binding) | Mode of PTP1B inhibition (Lineweaver–Burk plot) [3] | IC50 [3] | HIV-1-integrase inhibition (HIV-1-integrase) |
| --- | --- | --- | --- | --- | --- | --- | --- | --- | --- | --- | --- | --- | --- | --- | --- |
| COC(=O)c1cc(O)cc(OC)c1Oc1cc(C)cc(O)c1C(=O)O [Compound 3, asterric acid] | > 80 µM | > 80 µM | 13.7% | did not significantly affect | – | – | – | – | – | – | – | endothelin binding inhibitor | – | – | – |
| CC1=Cc2oc3cc(O)c(O)cc3c(=O)c2CO1 [Compound 4, myxotrichin C] | 28.1 ± 1.4 µM | 25.2 ± 1.3 µM | – | – | – | – | – | – | – | – | – | – | noncompetitive inhibitor | 19.2 ± 1 µM | – |
| C/C=C/c1cc(=O)c(C(=O)c2c(OC)cc(OC)cc2C(=O)OC)co1 [Compound 5, deoxyfunicone] | 10.6 ± 0.5 µM | 32.3 ± 1.6 µM | – | – | – | – | – | – | – | – | – | – | competitive | 24.3 ± 1.2 µM | HIV-1-integrase inhibitor |

More lines, main results first:

| IC50 [1] | IC50 [2] | inhibition at 50 µM [3] | Compound | Effect on alteration of NO production [1] | mRNA over-expression of IL-1β, TNF-α, IL-6 and IL-12 [4] | Protein expression of iNOS and COX-2 [5] | Activation of the NF-κB pathway (IκB-α phosphorylation/degradation, p50/p65 nuclear translocation) ([6]; 1.0, 2.0, 4.0 μM pre-treatment 3 h, LPS 1 h) | DNA binding activity of the p65 subunit ([6]; nuclear fraction, NF-κB ELISA kit) | Increased phosphorylation levels of ERK and JNK MAPKs [7] | LPS-induced p38 MAPK phosphorylation [7] | Neurite outgrowth in PC12 pheochromocytoma cells [8] | Endothelin binding inhibition (endothelin binding) | Mode of PTP1B inhibition (Lineweaver–Burk plot) [3] | IC50 [3] | HIV-1-integrase inhibition (HIV-1-integrase) |
| --- | --- | --- | --- | --- | --- | --- | --- | --- | --- | --- | --- | --- | --- | --- | --- |
| > 80 µM | > 80 µM | 45.7% | COc1cc2c(cc1O)OCC1=C2O[C@@H](C)CC1=O [Compound 1, 9-O-methylneuchromenin] | did not significantly affect | – | – | – | – | – | – | – | – | – | – | – |
| 2.7 ± 0.1 µM | 3.2 ± 0.2 µM | 37.8% | C[C@H]1CC(=O)C2=C(O1)c1cc(O)c(O)cc1OC2 [Compound 2, neuchromenin] | – | effectively decreased | attenuated | suppressed | decreased | unchanged | inhibited | induced neurite outgrowth | – | – | – | – |
